We go through 14 molecules from ChEMBL document CHEMBL4229522, “Inhibition of the LOX enzyme family members with old and new ligands. Selectivity analysis revisited” (Bioorg Med Chem Lett, 2018).

The target of one experiment is T1, Protein-lysine 6-oxidase (Homo sapiens, UniProt P28300).
T1 sequence (P28300 whole entry): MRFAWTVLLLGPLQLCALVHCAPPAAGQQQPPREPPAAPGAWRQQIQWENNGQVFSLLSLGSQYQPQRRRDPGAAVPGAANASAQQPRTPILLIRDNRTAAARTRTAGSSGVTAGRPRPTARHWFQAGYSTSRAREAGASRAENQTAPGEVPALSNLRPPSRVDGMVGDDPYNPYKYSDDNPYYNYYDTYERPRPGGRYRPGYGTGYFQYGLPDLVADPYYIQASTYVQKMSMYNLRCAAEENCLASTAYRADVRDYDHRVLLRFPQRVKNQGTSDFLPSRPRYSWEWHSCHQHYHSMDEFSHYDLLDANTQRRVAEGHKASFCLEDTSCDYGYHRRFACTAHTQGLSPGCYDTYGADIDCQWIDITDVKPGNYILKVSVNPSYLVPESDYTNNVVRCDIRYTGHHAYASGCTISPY
Briefly: Inhibition of recombinant human LOX expressed in HEK293 cells using diaminopentane as substrate preincubated for 30 mins followed by substrate addition measured after 1 hr by fluorimetric method. Format: cell-based.

In a further experiment the target is T2, Lysyl oxidase homolog 2 (Homo sapiens, UniProt Q9Y4K0).
T2 sequence (Q9Y4K0 whole entry): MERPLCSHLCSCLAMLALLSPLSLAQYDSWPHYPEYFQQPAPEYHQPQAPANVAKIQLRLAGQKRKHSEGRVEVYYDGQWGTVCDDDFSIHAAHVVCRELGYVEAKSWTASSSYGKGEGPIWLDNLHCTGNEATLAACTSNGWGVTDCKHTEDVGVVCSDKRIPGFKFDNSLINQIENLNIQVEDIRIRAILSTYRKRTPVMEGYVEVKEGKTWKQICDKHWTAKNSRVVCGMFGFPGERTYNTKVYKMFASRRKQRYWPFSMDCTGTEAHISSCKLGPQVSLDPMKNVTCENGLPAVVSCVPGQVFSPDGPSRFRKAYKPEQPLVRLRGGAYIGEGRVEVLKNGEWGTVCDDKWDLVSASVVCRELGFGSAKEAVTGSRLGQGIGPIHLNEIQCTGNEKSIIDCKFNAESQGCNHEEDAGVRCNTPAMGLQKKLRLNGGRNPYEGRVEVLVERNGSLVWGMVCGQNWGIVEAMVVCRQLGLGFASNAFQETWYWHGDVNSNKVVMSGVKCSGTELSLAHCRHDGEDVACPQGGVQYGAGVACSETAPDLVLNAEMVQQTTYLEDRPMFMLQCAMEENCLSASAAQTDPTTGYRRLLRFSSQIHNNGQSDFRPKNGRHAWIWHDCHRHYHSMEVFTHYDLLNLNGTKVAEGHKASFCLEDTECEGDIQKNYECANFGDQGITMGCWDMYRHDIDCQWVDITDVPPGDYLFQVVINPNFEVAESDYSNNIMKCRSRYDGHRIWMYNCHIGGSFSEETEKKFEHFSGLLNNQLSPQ
Briefly: Inhibition of recombinant LOXL2 (unknown origin) expressed in NS0 cells using diaminopentane as substrate preincubated for 30 mins followed by substrate addition measured after 1 hr by fluorimetric method.

For the next experiment, the target named is T3, Lysyl oxidase homolog 3 (Homo sapiens, UniProt P58215).
T3 sequence (P58215 whole entry): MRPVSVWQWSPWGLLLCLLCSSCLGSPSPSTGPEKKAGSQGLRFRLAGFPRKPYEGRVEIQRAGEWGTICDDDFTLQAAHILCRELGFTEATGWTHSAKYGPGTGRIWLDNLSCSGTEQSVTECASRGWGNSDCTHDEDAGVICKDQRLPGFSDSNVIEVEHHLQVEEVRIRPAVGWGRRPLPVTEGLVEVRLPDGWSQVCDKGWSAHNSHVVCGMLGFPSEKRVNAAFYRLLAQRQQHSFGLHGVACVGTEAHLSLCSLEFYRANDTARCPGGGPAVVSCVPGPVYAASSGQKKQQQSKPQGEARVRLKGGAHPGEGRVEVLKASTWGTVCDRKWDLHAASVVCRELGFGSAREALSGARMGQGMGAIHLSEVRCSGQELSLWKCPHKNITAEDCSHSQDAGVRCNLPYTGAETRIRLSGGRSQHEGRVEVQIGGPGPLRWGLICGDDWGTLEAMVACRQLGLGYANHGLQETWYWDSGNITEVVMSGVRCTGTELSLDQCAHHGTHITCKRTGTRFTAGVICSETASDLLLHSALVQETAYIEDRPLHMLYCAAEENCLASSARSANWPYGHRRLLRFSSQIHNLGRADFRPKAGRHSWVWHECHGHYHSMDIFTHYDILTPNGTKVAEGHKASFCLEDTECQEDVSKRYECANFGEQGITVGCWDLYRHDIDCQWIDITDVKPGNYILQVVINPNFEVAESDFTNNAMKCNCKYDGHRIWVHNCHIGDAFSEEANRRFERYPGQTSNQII
Briefly: Inhibition of recombinant human LOXL3 expressed in CHO cells using diaminopentane as substrate preincubated for 30 mins followed by substrate addition measured after 1 hr by fluorimetric method.

A further experiment has as its target T4, Lysyl oxidase homolog 4 (Homo sapiens, UniProt Q96JB6).
T4 sequence (Q96JB6 whole entry): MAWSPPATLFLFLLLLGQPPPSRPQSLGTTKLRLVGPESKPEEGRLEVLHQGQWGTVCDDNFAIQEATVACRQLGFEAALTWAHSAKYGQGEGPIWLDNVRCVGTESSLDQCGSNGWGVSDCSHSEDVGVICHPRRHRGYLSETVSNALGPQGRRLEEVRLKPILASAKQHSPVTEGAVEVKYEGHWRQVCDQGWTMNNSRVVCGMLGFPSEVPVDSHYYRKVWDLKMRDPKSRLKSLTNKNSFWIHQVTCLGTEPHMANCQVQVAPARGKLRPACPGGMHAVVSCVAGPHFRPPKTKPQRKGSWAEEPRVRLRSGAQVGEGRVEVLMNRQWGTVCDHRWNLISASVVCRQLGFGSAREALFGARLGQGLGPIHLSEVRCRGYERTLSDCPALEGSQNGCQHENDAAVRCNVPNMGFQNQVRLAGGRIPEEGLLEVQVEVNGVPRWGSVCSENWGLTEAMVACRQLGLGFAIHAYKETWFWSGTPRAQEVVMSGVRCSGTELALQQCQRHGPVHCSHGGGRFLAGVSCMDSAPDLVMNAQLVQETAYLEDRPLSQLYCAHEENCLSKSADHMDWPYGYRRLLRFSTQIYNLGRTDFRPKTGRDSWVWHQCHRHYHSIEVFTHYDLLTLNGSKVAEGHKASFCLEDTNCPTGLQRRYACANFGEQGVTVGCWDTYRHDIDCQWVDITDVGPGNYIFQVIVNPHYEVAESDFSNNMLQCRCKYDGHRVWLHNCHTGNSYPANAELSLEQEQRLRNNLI
Briefly: Inhibition of recombinant human LOXL4 expressed in baculovirus infected insect cells using diaminopentane as substrate preincubated for 30 mins followed by substrate addition measured after 1 hr by fluorimetric method.

Experiment [1] addresses T5, Lysyl oxidase homolog 2 (Homo sapiens) (UniProt Q9Y4K0).
T5 sequence (whole entry): T2 sequence (Q9Y4K0 whole entry)
Briefly: Inhibition of recombinant LOXL2 (unknown origin) expressed in NS0 cells at 10 uM using diaminopentane as substrate preincubated for 30 mins followed by substrate addition measured after 1 hr by fluorimetric method relative to control.

The target of experiment [2] is T6, Lysyl oxidase homolog 4 (Homo sapiens) (UniProt Q96JB6).
T6 sequence (whole entry): T4 sequence (Q96JB6 whole entry)
Briefly: Inhibition of recombinant human LOXL4 expressed in baculovirus infected insect cells at 10 uM using diaminopentane as substrate preincubated for 30 mins followed by substrate addition measured after 1 hr by fluorimetric method relative to control.

One may read the IC50 as the concentration needed to halve the response being measured. The inhibition is the drop in the measured response relative to a control, in per cent. As to `CC1=NN(c2ccccc2)C(=O)C1C` (stereo not drawn), the IC50 on Protein-lysine 6-oxidase is 2.6 µM; at Lysyl oxidase homolog 2, 2.1 µM; at Lysyl oxidase homolog 3, 1.3 µM; on Lysyl oxidase homolog 4, 2.1 µM. Further, the inhibition in experiment [1] and in experiment [2] was under 40% in each case.
As to `O=c1c2cccnc2[nH]c(=S)n1-c1ccccc1`, the IC50 on Protein-lysine 6-oxidase is over 100 µM; at Lysyl oxidase homolog 2 it was 75 µM; at Lysyl oxidase homolog 3, 18 µM; on Lysyl oxidase homolog 4, over 100 µM. Besides, the inhibition in experiment [1] and in experiment [2] was under 40% in each case.
For `Cc1cc(C)c2c(=O)n(-c3ccccc3)[nH]c2n1`, the IC50 at Protein-lysine 6-oxidase is 35 µM; on Lysyl oxidase homolog 2, 25 µM; at Lysyl oxidase homolog 3 it was over 100 µM; at Lysyl oxidase homolog 4, over 100 µM. Moreover, the inhibition in experiment [1] and in experiment [2] was under 40% each time.
As for `Cc1cc(-c2ccc3c(=O)n(-c4ccccc4)[nH]c3n2)c(C)o1`, the IC50 at Lysyl oxidase homolog 2 came out at 3.8 µM; at Lysyl oxidase homolog 4, 55 µM. Moreover, the inhibition in experiment [1] and in experiment [2] was under 40% throughout.
In the case of `N#CCCN`, the IC50 on Protein-lysine 6-oxidase is over 100 µM; at Lysyl oxidase homolog 2, 0.073 µM; on Lysyl oxidase homolog 3 it was 0.17 µM; on Lysyl oxidase homolog 4, over 100 µM. In addition, the inhibition in experiment [2] was under 40%.
On to `CCOC(=O)c1sc(N/N=C2\C(=O)N(c3ccccc3)N=C2N)c(C(=O)OCC)c1C`, for which the half-inhibitory concentration (IC50) was over 100 µM at Lysyl oxidase homolog 2, over 100 µM at Lysyl oxidase homolog 3 and 3.3 µM on Lysyl oxidase homolog 4. The inhibition in experiment [1] and in experiment [2] was under 40% throughout.
Regarding `COc1ccccc1-c1cc(=O)c2c(=O)n(-c3ccccc3)[nH]c2[nH]1`, the IC50 on Lysyl oxidase homolog 2 is 45 µM; on Lysyl oxidase homolog 4, over 100 µM. In addition, the inhibition in experiment [1] and in experiment [2] was under 40% each time.
Turning to `CCN(CC)C(=S)SSC(=S)N(CC)CC` [DISULFIRAM], the half-maximal inhibitory concentration (IC50) is 0.32 µM on Protein-lysine 6-oxidase, 0.15 µM on Lysyl oxidase homolog 2, 0.093 µM on Lysyl oxidase homolog 3 and 0.059 µM at Lysyl oxidase homolog 4. Besides, the inhibition in experiment [1] and in experiment [2] was under 40% in each case.
For the molecule `CC1=NN(c2ccccc2)C(=O)/C1=C/NNc1nnc(C)c(O)n1`, the IC50 on Lysyl oxidase homolog 2 is 34 µM; at Lysyl oxidase homolog 4, over 100 µM. Moreover, the inhibition in experiment [1] and in experiment [2] was under 40% in each case.
Turning to `CN(C)C(=S)SSC(=S)N(C)C` [THIRAM], the IC50 at Protein-lysine 6-oxidase stood at 1.04 µM; at Lysyl oxidase homolog 2, 0.17 µM; on Lysyl oxidase homolog 3, 0.11 µM; on Lysyl oxidase homolog 4 it was 0.18 µM. The inhibition in experiment [1] and in experiment [2] was under 40% throughout.
Regarding `O=c1c2ccc(-c3cccs3)nc2[nH]n1-c1ccccc1`, the IC50 on Protein-lysine 6-oxidase is over 100 µM; at Lysyl oxidase homolog 2 it was 7.8 µM; at Lysyl oxidase homolog 4, over 100 µM. Further, the inhibition in experiment [1] and in experiment [2] was under 40% throughout.
On to `CCN1/C(=C2\C(=O)N(c3ccccc3)N=C2Nc2ccccc2)C=Cc2ccccc21`, for which the IC50 is 1 µM on Lysyl oxidase homolog 2 and over 100 µM at Lysyl oxidase homolog 4. Besides, the inhibition in experiment [1] and in experiment [2] was under 40% each time.
On to `[O-][n+]1ccccc1S` [PYRITHIONE], for which the 50% inhibitory concentration (IC50) came to 33 µM on Protein-lysine 6-oxidase, 18 µM at Lysyl oxidase homolog 2, 12 µM on Lysyl oxidase homolog 3 and 15 µM on Lysyl oxidase homolog 4. Further, the inhibition in experiment [1] and in experiment [2] was under 40% each time.
Turning to `CC(C)(C)C1=NN(c2ccccc2)C(=O)C1`, the IC50 is 75 µM at Protein-lysine 6-oxidase, over 100 µM at Lysyl oxidase homolog 2, over 100 µM on Lysyl oxidase homolog 3 and over 100 µM at Lysyl oxidase homolog 4. The inhibition in experiment [1] and in experiment [2] was under 40% throughout.
